ChEMBL document CHEMBL1201862, “PubChem BioAssay data set” (2004)
Each block holds one compound with its values, some of them ahead of it. Active and inactive are the calls of the source.

Experiments:
[1] = biological target: T1, Sentrin-specific protease 8 (Homo sapiens, UniProt Q96LD8); assay: inhibition of human SENP8 cleavage activity – biochemical, luminescence, SAR follow-up (AID 504501); type: functional
T1 sequence (Q96LD8 whole entry): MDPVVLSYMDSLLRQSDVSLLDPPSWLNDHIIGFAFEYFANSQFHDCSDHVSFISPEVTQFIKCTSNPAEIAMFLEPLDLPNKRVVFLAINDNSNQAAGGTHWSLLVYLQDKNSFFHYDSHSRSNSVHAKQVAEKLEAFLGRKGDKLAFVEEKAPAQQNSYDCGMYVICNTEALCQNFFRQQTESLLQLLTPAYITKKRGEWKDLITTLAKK

Caspase-3 = biological target: T2, Caspase-3 (Homo sapiens, UniProt P42574); assay: SAR Analysis of small molecule inhibitors of Sentrin-specific proteases (SENPs) using a Caspase-3 Selectivity assay. [Related pubchem assays (depositor defined):AID2540, AID2599, AID434973, AID489001]; type: functional
T2 sequence (P42574 whole entry): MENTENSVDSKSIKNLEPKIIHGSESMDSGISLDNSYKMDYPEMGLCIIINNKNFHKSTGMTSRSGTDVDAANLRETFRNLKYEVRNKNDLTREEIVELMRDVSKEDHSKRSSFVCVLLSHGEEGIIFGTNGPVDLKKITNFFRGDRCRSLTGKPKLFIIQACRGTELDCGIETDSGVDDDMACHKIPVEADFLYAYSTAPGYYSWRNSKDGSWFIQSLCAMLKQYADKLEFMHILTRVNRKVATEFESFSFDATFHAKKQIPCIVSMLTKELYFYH

[2] = biological target: T3, Sentrin-specific protease 6 (Homo sapiens, UniProt Q9GZR1); assay: SAR Analysis of small molecule inhibitors of Sentrin-specific protease 6 (SENP6) using a Luminescent assay. [Related pubchem assays (depositor defined):AID2582, AID2599]; type: functional
T3 sequence (Q9GZR1 whole entry): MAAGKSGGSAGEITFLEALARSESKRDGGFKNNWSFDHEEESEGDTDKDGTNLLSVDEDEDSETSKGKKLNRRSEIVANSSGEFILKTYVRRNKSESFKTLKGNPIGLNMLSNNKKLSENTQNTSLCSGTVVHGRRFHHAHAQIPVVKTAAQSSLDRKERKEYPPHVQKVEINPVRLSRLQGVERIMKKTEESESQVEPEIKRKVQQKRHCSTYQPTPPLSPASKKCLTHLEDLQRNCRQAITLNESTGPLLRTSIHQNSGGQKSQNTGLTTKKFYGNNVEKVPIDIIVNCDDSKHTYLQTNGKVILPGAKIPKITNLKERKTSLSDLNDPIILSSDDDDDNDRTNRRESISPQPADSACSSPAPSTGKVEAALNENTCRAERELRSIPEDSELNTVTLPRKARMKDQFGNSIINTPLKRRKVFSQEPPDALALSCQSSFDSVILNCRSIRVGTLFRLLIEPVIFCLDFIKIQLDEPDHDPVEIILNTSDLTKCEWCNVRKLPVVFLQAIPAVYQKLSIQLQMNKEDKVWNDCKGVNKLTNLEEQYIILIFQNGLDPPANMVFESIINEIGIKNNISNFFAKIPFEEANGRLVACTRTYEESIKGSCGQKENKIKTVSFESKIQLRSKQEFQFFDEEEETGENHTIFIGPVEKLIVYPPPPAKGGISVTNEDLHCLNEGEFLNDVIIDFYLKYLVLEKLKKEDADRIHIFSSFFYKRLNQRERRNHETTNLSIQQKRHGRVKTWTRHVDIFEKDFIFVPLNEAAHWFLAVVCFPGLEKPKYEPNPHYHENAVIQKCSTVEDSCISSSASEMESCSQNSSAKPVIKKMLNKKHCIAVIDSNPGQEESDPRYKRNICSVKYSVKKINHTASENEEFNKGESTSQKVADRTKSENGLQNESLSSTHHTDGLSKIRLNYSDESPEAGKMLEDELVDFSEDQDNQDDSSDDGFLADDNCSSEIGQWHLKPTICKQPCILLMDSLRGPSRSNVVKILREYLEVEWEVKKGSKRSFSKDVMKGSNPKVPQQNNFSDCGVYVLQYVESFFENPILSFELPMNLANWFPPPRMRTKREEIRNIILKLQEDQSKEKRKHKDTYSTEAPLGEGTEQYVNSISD

[3] = biological target: T4, Sentrin-specific protease 7 (Homo sapiens, UniProt Q9BQF6); assay: inhibition of human SENP7 cleavage activity – biochemical, luminescence, SAR follow-up (AID 504497); type: functional
T4 sequence (Q9BQF6 whole entry): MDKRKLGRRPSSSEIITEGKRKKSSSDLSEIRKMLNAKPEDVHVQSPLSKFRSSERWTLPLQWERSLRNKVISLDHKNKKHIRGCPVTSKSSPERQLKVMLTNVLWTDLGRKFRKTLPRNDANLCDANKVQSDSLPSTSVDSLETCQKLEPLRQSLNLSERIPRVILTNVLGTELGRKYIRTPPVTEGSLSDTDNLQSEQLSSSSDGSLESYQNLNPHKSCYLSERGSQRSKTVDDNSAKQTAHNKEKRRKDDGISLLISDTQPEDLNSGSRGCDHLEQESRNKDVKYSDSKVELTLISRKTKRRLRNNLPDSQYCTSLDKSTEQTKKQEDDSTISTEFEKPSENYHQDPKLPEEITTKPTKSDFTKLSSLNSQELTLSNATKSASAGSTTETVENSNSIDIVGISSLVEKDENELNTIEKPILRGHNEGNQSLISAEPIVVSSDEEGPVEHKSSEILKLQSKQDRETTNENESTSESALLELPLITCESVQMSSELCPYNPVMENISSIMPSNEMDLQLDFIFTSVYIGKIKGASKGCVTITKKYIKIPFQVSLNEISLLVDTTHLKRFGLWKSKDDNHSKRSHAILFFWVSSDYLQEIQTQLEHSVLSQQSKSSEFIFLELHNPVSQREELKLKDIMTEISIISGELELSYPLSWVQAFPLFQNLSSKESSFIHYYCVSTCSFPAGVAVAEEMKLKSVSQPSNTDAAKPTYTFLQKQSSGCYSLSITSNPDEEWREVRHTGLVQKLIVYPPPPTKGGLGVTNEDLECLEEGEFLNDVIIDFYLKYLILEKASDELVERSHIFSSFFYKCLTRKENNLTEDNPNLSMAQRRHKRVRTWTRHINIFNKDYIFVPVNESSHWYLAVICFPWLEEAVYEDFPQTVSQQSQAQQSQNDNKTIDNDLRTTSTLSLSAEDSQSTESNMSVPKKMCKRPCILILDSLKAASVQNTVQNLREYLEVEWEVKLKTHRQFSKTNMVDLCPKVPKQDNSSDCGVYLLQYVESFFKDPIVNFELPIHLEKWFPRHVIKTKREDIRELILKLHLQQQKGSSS

Insulin-degrading enzyme [4] = biological target: T5, Insulin-degrading enzyme (Homo sapiens, UniProt P14735); assay: recombinant IDE activation, cell-free – biochemical, fluorescence polarization, counter-screen for IDE activator project, dose response (AID 588681)
T5 sequence (P14735 whole entry): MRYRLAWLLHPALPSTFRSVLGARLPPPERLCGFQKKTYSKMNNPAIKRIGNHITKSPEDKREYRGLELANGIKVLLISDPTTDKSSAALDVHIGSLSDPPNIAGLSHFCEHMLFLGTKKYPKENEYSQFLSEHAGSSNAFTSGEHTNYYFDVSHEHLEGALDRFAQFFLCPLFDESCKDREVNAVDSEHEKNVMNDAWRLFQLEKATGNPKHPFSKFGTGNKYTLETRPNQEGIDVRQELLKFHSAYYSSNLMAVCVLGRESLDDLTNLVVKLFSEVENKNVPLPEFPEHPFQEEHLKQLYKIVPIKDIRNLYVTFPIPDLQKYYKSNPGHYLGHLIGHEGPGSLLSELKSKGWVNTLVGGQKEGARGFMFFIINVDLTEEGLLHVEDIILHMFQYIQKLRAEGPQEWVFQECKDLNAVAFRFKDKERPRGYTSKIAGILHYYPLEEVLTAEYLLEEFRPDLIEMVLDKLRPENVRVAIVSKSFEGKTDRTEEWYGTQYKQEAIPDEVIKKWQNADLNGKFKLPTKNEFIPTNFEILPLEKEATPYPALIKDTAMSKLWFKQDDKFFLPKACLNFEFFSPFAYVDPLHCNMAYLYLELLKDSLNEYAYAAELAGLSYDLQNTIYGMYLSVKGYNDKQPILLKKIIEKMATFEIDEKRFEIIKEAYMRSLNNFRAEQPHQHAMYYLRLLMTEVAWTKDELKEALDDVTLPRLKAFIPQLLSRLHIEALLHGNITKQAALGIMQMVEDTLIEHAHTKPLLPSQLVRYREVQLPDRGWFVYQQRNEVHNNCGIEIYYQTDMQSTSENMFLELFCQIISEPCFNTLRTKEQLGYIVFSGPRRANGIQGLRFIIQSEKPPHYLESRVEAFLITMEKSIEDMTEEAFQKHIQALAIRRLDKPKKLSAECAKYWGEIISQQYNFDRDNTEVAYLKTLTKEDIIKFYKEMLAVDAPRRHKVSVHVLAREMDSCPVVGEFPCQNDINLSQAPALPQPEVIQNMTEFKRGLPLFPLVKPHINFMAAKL

Insulin-degrading enzyme [5] = biological target: T5, Insulin-degrading enzyme; assay: cellular IDE activation of Abeta substrate cleavage – fluorescence polarization, HEK cells, dose response (AID 588439); type: functional, cell-based
HEK293 [6] = assay: membrane integrity loss in HEK cells – cell-based, fluorescence, cytotoxicity control for IDE activator project, dose response (AID 588440); type: functional; settings: Homo sapiens;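 also: cytotoxicity by LDH release measuring loss of membrane integrity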
HEK293 [7] = assay: optical interference in Abeta FP readout, dose response, artefact control for IDE activator project, biochemical, fluorescence polarization (AID 588442); type: functional, cell-based; settings: Homo sapiens
[8] = biological target: Melanin-concentrating hormone receptor 1 (Homo sapiens, UniProt Q99705); assay: Late-stage fluorescence-based counterscreen for antagonists of the G-protein coupled receptor 7 (GPR7): cell-based dose response assay to identify antagonists of the melanin-concentrating hormone receptor 1 (MCHR1) Set 5.; type: functional
[9] = biological target: Serine/threonine-protein phosphatase PP1-alpha catalytic subunit (Homo sapiens, UniProt P62136); assay: inhibition of protein phosphatase 1 activity – biochemical, fluorescence, dose response (AID 2394)
[10] = biological target: Serine/threonine-protein phosphatase (Homo sapiens, UniProt Q9BPW0); assay: inhibition of protein phosphatase 5 activity – biochemical, fluorescence, dose response (AID 2395)
[11] = biological target: T6, Apoptotic protease-activating factor 1 (Homo sapiens, UniProt O14727); type: functional
T6 sequence (O14727 whole entry): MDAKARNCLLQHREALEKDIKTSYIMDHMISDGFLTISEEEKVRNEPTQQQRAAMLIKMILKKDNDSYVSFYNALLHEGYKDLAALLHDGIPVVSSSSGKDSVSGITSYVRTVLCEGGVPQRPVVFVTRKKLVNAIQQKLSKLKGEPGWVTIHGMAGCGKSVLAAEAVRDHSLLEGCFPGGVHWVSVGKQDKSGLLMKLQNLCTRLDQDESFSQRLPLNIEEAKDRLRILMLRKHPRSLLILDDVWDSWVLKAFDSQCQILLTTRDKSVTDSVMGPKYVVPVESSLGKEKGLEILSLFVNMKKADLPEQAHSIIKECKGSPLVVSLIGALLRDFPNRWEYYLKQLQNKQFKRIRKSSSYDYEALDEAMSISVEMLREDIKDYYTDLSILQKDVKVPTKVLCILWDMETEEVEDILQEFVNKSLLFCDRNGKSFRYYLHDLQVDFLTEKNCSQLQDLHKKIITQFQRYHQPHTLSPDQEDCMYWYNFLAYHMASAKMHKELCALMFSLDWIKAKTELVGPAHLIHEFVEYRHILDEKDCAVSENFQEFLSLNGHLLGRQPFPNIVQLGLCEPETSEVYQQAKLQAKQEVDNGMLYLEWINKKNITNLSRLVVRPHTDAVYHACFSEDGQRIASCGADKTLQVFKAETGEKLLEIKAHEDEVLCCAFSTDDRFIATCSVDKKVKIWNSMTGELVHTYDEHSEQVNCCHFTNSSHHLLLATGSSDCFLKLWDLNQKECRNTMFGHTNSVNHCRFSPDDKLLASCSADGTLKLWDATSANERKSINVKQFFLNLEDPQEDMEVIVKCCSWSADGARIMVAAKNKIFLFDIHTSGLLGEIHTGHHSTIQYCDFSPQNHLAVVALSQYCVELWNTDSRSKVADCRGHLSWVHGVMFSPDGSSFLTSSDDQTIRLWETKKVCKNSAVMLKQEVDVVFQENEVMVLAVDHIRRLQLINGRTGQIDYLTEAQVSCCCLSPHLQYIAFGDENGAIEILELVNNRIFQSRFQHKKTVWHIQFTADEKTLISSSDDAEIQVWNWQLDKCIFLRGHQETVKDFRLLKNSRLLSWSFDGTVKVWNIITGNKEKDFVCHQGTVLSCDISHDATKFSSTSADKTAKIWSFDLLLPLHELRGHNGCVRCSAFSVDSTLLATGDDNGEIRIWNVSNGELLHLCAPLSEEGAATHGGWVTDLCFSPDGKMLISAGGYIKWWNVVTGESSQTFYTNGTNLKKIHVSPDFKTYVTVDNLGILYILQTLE

Caspase-6 = biological target: T7, Caspase-6 (Homo sapiens, UniProt P55212); assay: inhibition of CASP6 peptide cleavage – biochemical, VEID-R110 fluorescence, cherry-pick, dose response (AID 720632)
T7 sequence (P55212 whole entry): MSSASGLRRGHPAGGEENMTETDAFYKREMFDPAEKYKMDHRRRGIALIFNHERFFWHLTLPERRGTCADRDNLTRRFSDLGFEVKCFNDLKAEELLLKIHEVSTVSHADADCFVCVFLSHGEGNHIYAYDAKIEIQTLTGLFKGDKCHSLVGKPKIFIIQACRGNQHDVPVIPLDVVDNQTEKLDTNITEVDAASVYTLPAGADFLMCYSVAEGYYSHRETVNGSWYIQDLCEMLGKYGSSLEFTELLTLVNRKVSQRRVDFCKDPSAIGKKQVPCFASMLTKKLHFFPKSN

Chain of Melanin-concentrating hormone receptor 1 (Q99705 whole entry): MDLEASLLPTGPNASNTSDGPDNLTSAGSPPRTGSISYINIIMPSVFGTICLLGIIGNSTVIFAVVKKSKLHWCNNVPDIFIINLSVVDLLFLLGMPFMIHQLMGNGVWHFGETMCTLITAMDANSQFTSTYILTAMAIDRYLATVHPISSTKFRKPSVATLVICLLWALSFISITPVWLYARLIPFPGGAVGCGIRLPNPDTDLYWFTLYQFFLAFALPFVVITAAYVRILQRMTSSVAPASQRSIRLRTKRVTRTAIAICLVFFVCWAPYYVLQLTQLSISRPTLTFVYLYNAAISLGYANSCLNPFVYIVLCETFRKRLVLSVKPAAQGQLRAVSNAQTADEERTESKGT
Chain of Serine/threonine-protein phosphatase PP1-alpha catalytic subunit (P62136 whole entry): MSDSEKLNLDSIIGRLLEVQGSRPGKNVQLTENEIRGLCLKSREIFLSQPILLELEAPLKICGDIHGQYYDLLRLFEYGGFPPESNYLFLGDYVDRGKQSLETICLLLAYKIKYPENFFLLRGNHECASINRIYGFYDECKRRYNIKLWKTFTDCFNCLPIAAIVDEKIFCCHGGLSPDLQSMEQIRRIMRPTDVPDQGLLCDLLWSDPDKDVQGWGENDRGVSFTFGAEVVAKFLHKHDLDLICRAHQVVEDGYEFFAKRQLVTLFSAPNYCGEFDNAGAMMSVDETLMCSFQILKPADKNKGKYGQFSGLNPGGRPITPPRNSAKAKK
Chain of Serine/threonine-protein phosphatase (Q9BPW0 whole entry): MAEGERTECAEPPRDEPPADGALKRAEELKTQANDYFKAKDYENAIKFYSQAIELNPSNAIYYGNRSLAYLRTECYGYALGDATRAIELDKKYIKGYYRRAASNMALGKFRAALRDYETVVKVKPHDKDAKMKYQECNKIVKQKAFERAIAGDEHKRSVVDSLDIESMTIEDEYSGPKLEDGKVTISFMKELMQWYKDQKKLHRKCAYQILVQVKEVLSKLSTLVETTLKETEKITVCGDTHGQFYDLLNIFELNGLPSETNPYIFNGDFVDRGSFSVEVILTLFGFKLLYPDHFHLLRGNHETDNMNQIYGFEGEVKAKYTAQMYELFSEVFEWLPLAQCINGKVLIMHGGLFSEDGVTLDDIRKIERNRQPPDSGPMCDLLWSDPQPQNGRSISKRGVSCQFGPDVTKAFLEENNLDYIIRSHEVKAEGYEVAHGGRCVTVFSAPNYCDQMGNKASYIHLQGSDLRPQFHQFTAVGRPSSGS

IC50 (Caspase-3): > 99 µM (inactive) | IC50 [2]: > 99 µM (inactive) | IC50 [3]: > 99 µM (inactive)
SMILES: Fc1ccc(N/N=C/c2cn(Cc3ccccc3)c3ccccc23)cc1
IC50 [1]: > 99 µM (inactive)

SMILES: O=C1c2ccccc2C(Nc2ccc3[nH]c(-c4cccnc4)nc3c2)N1Cc1ccco1 (stereo not drawn)
EC50 (Insulin-degrading enzyme [4]): > 54.6 µM (inactive) | EC50 (Insulin-degrading enzyme [5]): > 54.6 µM (inactive) | IC50 (HEK293 [6]): > 89.1 µM (inactive) | EC50 (HEK293 [7]): > 55.9 µM (inactive)

IC50 [8]: 1.95 µM (active)
SMILES: COc1ccc(Oc2c(Cl)cnn(Cc3ccccc3C(C)C)c2=O)cc1

IC50 [9]: 57.6 µM (not active) | IC50 [10]: 11.8 µM (not active) | IC50 [11]: 19.4 µM (active) | AC50 (Caspase-6): 8.77 µM (active)
SMILES: COC(=O)CCC(=O)OC1(C)C(=O)C=C2C=C(C3CC3)N(CCCCO)C=C2C1=O (stereo not drawn)
